Measurements: paper PMC9598282 (Antibiotics, 2022)
Converted amounts (≈) assume the structure as drawn. “And” between values parts separate entries of the source, which are not always exact repeats. Equal values may be shown once. Bridge positions count the residues as written; N and C are the ends. Square brackets hold non-standard residues; d marks the D form. Peptide text beside a SMILES is read from it. * marks the point of attachment. X1 = CC[C@H](C)CCCCC(=O)*; Dab = NCC[C@H](N)C(=O)O

Tests used:
P. aeruginosa PAO1 [1] = test: microbe, parasite or virus in culture; assay type: cell-based, Pseudomonas aeruginosa
In short: (§1)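 Antibiotic and guanidinylated polymyxin adjuvant were two-fold serially diluted across perpendicular axes, combined with bacterial suspension and incubated 18 h at 37 °C. Turbidity was read as OD590. FIC index is the sum of each agent's MIC in combination divided by its MIC alone: ≤0.5 synergy, 0.5–4 additivity, >4 antagonism.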

P. aeruginosa PA 109084 = test: MIC, broth microdilution; assay type: cell-based, Pseudomonas aeruginosa; settings: β-lactamase harboring isolate
Experimental: (§2) For the preparation of the bacterial solution, overnight grown culture was diluted in 0.85% saline solution, adjusted to 0.5 McFarland turbidity and further diluted in Mueller–Hinton broth for inoculation to a final concentration of 5 × 10^5 colony forming units/mL (CFU/mL). The agents were serially diluted two-fold in a 96-well plate, and equal volumes of bacterial solution were subsequently added to the designated wells. The well consisting of bacterial solution served as the positive control, while the well containing only media served as the negative control. The plate was then incubated at 37 °C for 18 h. After incubation, an Emax Plus microplate reader (Molecular Devices, Union City, CA, USA) was used to measure the optical density (OD) at a wavelength of 590 nm to confirm the turbidity. The antibacterial activity corresponded to the MIC, which is defined as the lowest concentration of the agent necessary to inhibit visible bacterial growth.

P. aeruginosa PA 107092 = test: MIC, broth microdilution; assay type: cell-based, Pseudomonas aeruginosa; settings: β-lactamase harboring isolate
Experimental: as §2

P. aeruginosa PA 86052 = test: MIC, broth microdilution; assay type: cell-based, Pseudomonas aeruginosa; settings: β-lactamase harboring isolate
Experimental: as §2

P. aeruginosa PA 88949 = test: MIC, broth microdilution; assay type: cell-based, Pseudomonas aeruginosa; settings: β-lactamase harboring isolate
Experimental: as §2

P. aeruginosa PA 108590 = test: MIC, broth microdilution; assay type: cell-based, Pseudomonas aeruginosa; settings: β-lactamase harboring isolate
Experimental: as §2

E. coli ATCC 25922 [2] = test: microbe, parasite or virus in culture; assay type: cell-based, Escherichia coli
In short: as §1

K. pneumoniae 113250 = assay type: cell-based, Klebsiella pneumoniae; settings: colistin-resistant isolate
Experimental: as §2

K. pneumoniae 113254 = assay type: cell-based, Klebsiella pneumoniae; settings: colistin-resistant isolate
Experimental: as §2

A. baumannii 110193 = assay type: cell-based, Acinetobacter baumannii; settings: colistin-susceptible MDR isolate
Experimental: as §2

A. baumannii AB027 = assay type: cell-based, Acinetobacter baumannii; settings: colistin-susceptible MDR isolate
Experimental: as §2

A. baumannii LAC-4 = assay type: cell-based, Acinetobacter baumannii; settings: colistin-susceptible MDR isolate
Experimental: as §2

A. baumannii AB031 = assay type: cell-based, Acinetobacter baumannii; settings: colistin-susceptible MDR isolate
Experimental: as §2

A. baumannii 92247 = assay type: cell-based, Acinetobacter baumannii; settings: colistin-resistant isolate
Experimental: as §2

A. baumannii ATCC 17978 [3] = assay type: cell-based, Acinetobacter baumannii; settings: wild-type
Experimental: as §2

P. aeruginosa 101243 = assay type: cell-based, Pseudomonas aeruginosa; settings: colistin-resistant isolate
Experimental: as §2

P. aeruginosa 114228 = assay type: cell-based, Pseudomonas aeruginosa; settings: colistin-resistant isolate
Experimental: as §2

P. aeruginosa P259-96918 = assay type: cell-based, Pseudomonas aeruginosa; settings: colistin-susceptible MDR isolate
Experimental: as §2

[4] = system: P. aeruginosa P264-104354; assay type: cell-based, Pseudomonas aeruginosa; settings: colistin-susceptible MDR isolate
Experimental: as §2

[5] = system: P. aeruginosa P262-101856; assay type: cell-based, Pseudomonas aeruginosa; settings: colistin-susceptible MDR isolate
Experimental: as §2

E. cloacae 118564 = assay type: cell-based, Enterobacter cloacae; settings: colistin-resistant isolate
Experimental: as §2

E. cloacae 121187 = assay type: cell-based, Enterobacter cloacae; settings: colistin-resistant isolate
Experimental: as §2

E. coli 94474 = assay type: cell-based, Escherichia coli; settings: colistin-resistant isolate
Experimental: as §2

E. coli 107115 = assay type: cell-based, Escherichia coli; settings: colistin-susceptible MDR isolate
Experimental: as §2

E. coli 94393 = assay type: cell-based, Escherichia coli; settings: colistin-resistant isolate
Experimental: as §2

A. baumannii ATCC 17978 [6] = test: microbe, parasite or virus in culture; assay type: cell-based, Acinetobacter baumannii
In short: as §1

P. aeruginosa PAO1 [7] = assay type: cell-based, Pseudomonas aeruginosa; settings: wild-type
Experimental: as §2

Hep G2 cells = test: Cell viability assay (PrestoBlue); assay type: cell-based, human; settings: 48 h
Experimental: (§3) The cytotoxicity of the guanidinylated polymyxins was evaluated using the cell viability assay as previously described. Human embryonic kidney cells (HEK293) and liver carcinoma cells (Hep G2) were cultured in flasks with Dulbecco’s Modified Eagle’s Medium (DMEM) supplemented with 10% fetal bovine serum. The cells were incubated at 5% CO2 in a humidified atmosphere at 37 °C. Equal volumes of media (50 μL) containing approximately 8000 cells (Hek293) or 5000 cells (HepG2) were added to wells in 96-well plates. The wells containing only media with no cells served as blanks. The plate was incubated for 24 h. Double the final desired concentrations of the agent were subsequently added to each well (experimental and blanks) in a volume of 50 μL. After 48 h incubation, PrestoBlue reagent from Invitrogen (Waltham, MA, USA,) was added to a final concentration of 10% (v/v), and plates were incubated for an additional1 h at 5% CO2. Fluorescence (excitation/emission, 560/590 nm) was measured with a SpectraMax M2 plate reader (Molecular Devices, United States). Values from the blank wells were subtracted from the corresponding wells with cells. The cell viability relative to the controls with a vehicle was calculated. The plots indicate the mean ± standard deviation of two experiments with five samples each. […]

HEK293 cells = test: Cell viability assay (PrestoBlue); assay type: cell-based, human; settings: 48 h
Experimental: as §3

E. coli ATCC 25922 [8] = assay type: cell-based, Escherichia coli; settings: wild-type
Experimental: as §2

[9] = agent alone, one value per checkerboard plate

| Compound | MIC (P. aeruginosa PA 109084) [µg/mL] | MIC (P. aeruginosa PA 107092) [µg/mL] | MIC (P. aeruginosa PA 86052) [µg/mL] | MIC (P. aeruginosa PA 88949) [µg/mL] | MIC (K. pneumoniae 113250) [µg/mL] | MIC (K. pneumoniae 113254) [µg/mL] | MIC (A. baumannii 110193) [µg/mL] | MIC (A. baumannii AB027) [µg/mL] | MIC (A. baumannii LAC-4) [µg/mL] | MIC (A. baumannii 92247) [µg/mL] | MIC (A. baumannii ATCC 17978 [3]) [µg/mL] | MIC (P. aeruginosa 101243) [µg/mL] | MIC (P. aeruginosa 114228) [µg/mL] | MIC (P. aeruginosa P259-96918) [µg/mL] | MIC [4] [µg/mL] | MIC [5] [µg/mL] | MIC (E. cloacae 118564) [µg/mL] | MIC (E. cloacae 121187) [µg/mL] | MIC (E. coli 94474) [µg/mL] | MIC (E. coli 107115) [µg/mL] | further results |
| --- | --- | --- | --- | --- | --- | --- | --- | --- | --- | --- | --- | --- | --- | --- | --- | --- | --- | --- | --- | --- | --- |
| CC[C@H](C)CCCCC(=O)N[C@@H](CCN)C(=O)N[C@H](C(=O)N[C@@H](CCN)C(=O)N[C@H]1CCNC(=O)[C@H]([C@@H](C)O)NC(=O)[C@H](CCN)NC(=O)[C@H](CCN)NC(=O)[C@H](CC(C)C)NC(=O)[C@@H](CC(C)C)NC(=O)[C@H](CCN)NC1=O)[C@@H](C)O [Colistin, colistin] (X1-[Dab]T[Dab][Dab][Dab][dL]L[Dab][Dab]T; lactam 4-C (inferred); N-terminus assumed) | 0.5 (≈ 0.428 µM) | 0.5 (≈ 0.428 µM) | 1 (≈ 0.855 µM) | 1 (≈ 0.855 µM) | 256 (≈ 219 µM) | 256 (≈ 219 µM) | 0.5 (≈ 0.428 µM) | 0.25 (≈ 0.214 µM) | 0.125 (≈ 0.107 µM) | 4 (≈ 3.42 µM) | 0.5 (≈ 0.428 µM) | 1024 (≈ 876 µM) | 4 (≈ 3.42 µM) | 0.5 (≈ 0.428 µM) | 1 (≈ 0.855 µM) | 2 (≈ 1.71 µM) | >128 | >128 | 16 (≈ 13.7 µM) | 0.125 (≈ 0.107 µM) | Absolute MIC of antibiotic at 4 μg/mL GCol (P. aeruginosa PAO1 [1]): 0.5 µg/mL; Absolute MIC of antibiotic at 4 μg/mL GPMB (P. aeruginosa PAO1 [1]): 1 µg/mL; MIC alone (P. aeruginosa PAO1 [1]; [9]): 0.5 µg/mL and 1 µg/mL; Fold-potentiation of antibiotic (P. aeruginosa PAO1 [1]; at 4 μg/mL GCol): 1; Fold-potentiation of antibiotic (P. aeruginosa PAO1 [1]; at 4 μg/mL GPMB): 1; MIC (P. aeruginosa PA 108590): 1 µg/mL (≈ 0.855 µM); Absolute MIC of antibiotic at 2 μg/mL GCol (E. coli ATCC 25922 [2]): 0.125 µg/mL; Absolute MIC of antibiotic at 2 μg/mL GPMB (E. coli ATCC 25922 [2]): 0.0313 µg/mL; FIC index antibiotic + GCol (E. coli ATCC 25922 [2]): 1.016; FIC index antibiotic + GPMB (E. coli ATCC 25922 [2]): 0.25; MIC alone (E. coli ATCC 25922 [2]; [9]): 0.125 µg/mL and 0.25 µg/mL; Fold-potentiation of antibiotic (E. coli ATCC 25922 [2]; at 2 μg/mL GCol): 1; Fold-potentiation of antibiotic (E. coli ATCC 25922 [2]; at 2 μg/mL GPMB): 8; MIC (A. baumannii AB031): 0.25 µg/mL (≈ 0.214 µM); MIC (E. coli 94393): 4 µg/mL (≈ 3.42 µM); Absolute MIC of antibiotic at 2 μg/mL GCol (A. baumannii ATCC 17978 [6]): 0.25 µg/mL; FIC index antibiotic + GPMB (A. baumannii ATCC 17978 [6]): 1.016; MIC alone (A. baumannii ATCC 17978 [6]; [9]): 0.25 µg/mL; Fold-potentiation of antibiotic (A. baumannii ATCC 17978 [6]; at 2 μg/mL GCol): 1; Fold-potentiation of antibiotic (A. baumannii ATCC 17978 [6]; at 2 μg/mL GPMB): 1 |
| polymyxin B [PMB] | 0.25 | 0.25 | 0.25 | 0.5 | >64 | >64 | 1 | 0.25 | 0.5 | 8 | 2 | >128 | 64 | ≤0.0625 | 2 | 0.5 | >64 | >64 | 16 | ≤0.125 | MIC (P. aeruginosa PAO1 [7]): 0.5 µg/mL; concentration up to which Hep G2 cells maintained 100% viability (Hep G2 cells): 25 µM; concentration up to which HEK293 cells maintained >90% viability (HEK293 cells): 125 µM; MIC (E. coli 94393): 2 µg/mL; MIC (E. coli ATCC 25922 [8]): 1 µg/mL |
